{"source": "ChEMBL document CHEMBL1159206", "about": "“Synthesis and biological activity of esters in the trans-1,2-dihydroxy-1,2-dihydroacronycine series” (J Nat Prod, 1998)", "key": {"L1210": {"tested_on": "L1210", "experiment": "Cytotoxicity against mouse L1210 cells after 48 hrs by […] assay", "format": "functional, cell-based", "conditions": "L1210, 48 h"}, "P388 [1]": {"tested_on": "P388", "experiment": "Antitumor activity against mouse P388 cells implanted in B6D2F1 mouse assessed as median survival time at 0.78 mg/kg, ip relative to control", "format": "functional", "conditions": "route intraperitoneal"}, "P388 [2]": {"tested_on": "P388", "experiment": "Antitumor activity against mouse P388 cells implanted in B6D2F1 mouse assessed as median survival time at 1.56 mg/kg, ip relative to control", "format": "functional", "conditions": "route intraperitoneal"}, "P388 [3]": {"tested_on": "P388", "experiment": "Antitumor activity against mouse P388 cells implanted in B6D2F1 mouse assessed as median survival time at 3.125 mg/kg, ip relative to control", "format": "functional", "conditions": "route intraperitoneal"}, "P388 [4]": {"tested_on": "P388", "experiment": "Antitumor activity against mouse P388 cells implanted in B6D2F1 mouse assessed as median survival time at 6.25 mg/kg, ip relative to control", "format": "functional", "conditions": "route intraperitoneal"}, "P388 [5]": {"tested_on": "P388", "experiment": "Antitumor activity against mouse P388 cells implanted in B6D2F1 mouse assessed as median survival time at 12.5 mg/kg, ip relative to control", "format": "functional", "conditions": "route intraperitoneal"}, "P388 [6]": {"tested_on": "P388", "experiment": "Antitumor activity against mouse P388 cells implanted in B6D2F1 mouse assessed as median survival time at 25 mg/kg, ip relative to control", "format": "functional", "conditions": "route intraperitoneal"}, "P388 [7]": {"tested_on": "P388", "experiment": "Antitumor activity against mouse P388 cells implanted in B6D2F1 mouse assessed as median survival time at 200 mg/kg, ip relative to control", "format": "functional", "conditions": "route intraperitoneal"}}, "note": "pIC50: −log10 of the molar value."}
{"molecule": "COc1cc2c(c3c1c(=O)c1ccccc1n3C)C(=O)C(O)C(C)(C)O2", "note": "(racemic)", "values": [{"measurement": "pIC50", "setting": "L1210", "value": 4.12}]}
{"molecule": "COc1cc2c(c3c1c(=O)c1ccccc1n3C)C(=O)C(O)(CC(C)=O)C(C)(C)O2", "note": "(racemic)", "values": [{"measurement": "pIC50", "setting": "L1210", "value": 4.65}]}
{"molecule": "COc1cc2c(c3c1c(=O)c1ccccc1n3C)[C@@H](O)[C@H](OC(=O)CCl)C(C)(C)O2", "note": "(racemic)", "values": [{"measurement": "pIC50", "setting": "L1210", "value": 4.96}]}
{"molecule": "COc1cc2c(c3c1c(=O)c1ccccc1n3C)[C@@H](O)[C@H](OC(C)=O)C(C)(C)O2", "note": "(racemic)", "values": [{"measurement": "pIC50", "setting": "L1210", "value": 5.06}]}
{"molecule": "COc1cc2c(c3c1c(=O)c1ccccc1n3C)[C@@H](OC(C)=O)[C@H](OC(C)=O)C(C)(C)O2", "note": "(racemic)", "values": [{"measurement": "pIC50", "setting": "L1210", "value": 5.06}, {"measurement": "T/C", "setting": "P388 [1]", "value": 122, "unit": "%"}, {"measurement": "T/C", "setting": "P388 [2]", "value": 136, "unit": "%"}, {"measurement": "T/C", "setting": "P388 [3]", "value": 155, "unit": "%"}, {"measurement": "T/C", "setting": "P388 [4]", "value": 160, "unit": "%"}, {"measurement": "T/C", "setting": "P388 [5]", "value": 181, "unit": "%"}, {"measurement": "T/C", "setting": "P388 [6]", "value": 77, "unit": "%"}]}
{"molecule": "COc1cc2c(c3c1c(=O)c1ccccc1n3C)[C@@H](OC(C)=O)[C@@H](OC(C)=O)C(C)(C)O2", "note": "(relative stereo)", "values": [{"measurement": "T/C", "setting": "P388 [6]", "value": 268, "unit": "%"}]}
{"molecule": "COc1cc2c(c3c1c(=O)c1ccccc1n3C)C=CC(C)(C)O2", "note": "[ACRONINE]", "values": [{"measurement": "pIC50", "setting": "L1210", "value": 4.60}, {"measurement": "T/C", "setting": "P388 [7]", "value": 125, "unit": "%"}]}
